For 11 compounds, GI50 and TGI results are on record in PubChem BioAssay (NCI).

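Assay format: 96-well plates, 48-hour exposure. GI50 is the concentration that inhibits growth by half. At the TGI there is no net growth.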 Some results are limits rather than exact numbers.

Among the test systems are 786-0 renal; CAKI-1 renal; COLO 205 colon; NCI-H23 lung; OVCAR-8 ovarian; RXF 393 renal; SK-MEL-2 melanoma; SK-MEL-5 melanoma; UACC-62 melanoma; TK-10 renal.
What all share (experiment): inhibition of tumour cell growth, NCI panel, 48 h

As to `FC(F)(F)c1cc(-c2nnc3n2N=C(N2CCCC2)CS3)cc(C(F)(F)F)c1`, the GI50 in the assay with 786-0 renal was 20.3 µM; in the assay on CAKI-1 renal, greater than 50 µM; with COLO 205 colon it was greater than 50 µM; in the assay on NCI-H23 lung it was greater than 50 µM; in the assay on OVCAR-8 ovarian, 32.9 µM; with RXF 393 renal it was 26.6 µM. Also, the GI50 in the assay with SK-MEL-2 melanoma, in the assay on SK-MEL-5 melanoma and in the assay with UACC-62 melanoma was greater than 50 µM each time. Further, the TGI in the assay with 786-0 renal, in the assay with CAKI-1 renal, with COLO 205 colon, in the assay with NCI-H23 lung, in the assay with OVCAR-8 ovarian and with RXF 393 renal was greater than 50 µM each time. Moreover, the TGI with SK-MEL-2 melanoma, in the assay with SK-MEL-5 melanoma and with UACC-62 melanoma was greater than 50 µM each time.

Consider `COc1ccc2c(c1)/C(=C\c1cccnc1)C(=O)N2`, for which the GI50 is 18.3 µM in the assay with 786-0 renal; 3.68 µM in the assay with CAKI-1 renal; 26.2 µM in the assay on COLO 205 colon; 16.6 µM in the assay with NCI-H23 lung; 11.8 µM in the assay on OVCAR-8 ovarian; 13.4 µM in the assay on RXF 393 renal. For the same compound, the GI50 in the assay on SK-MEL-2 melanoma was 42.3 µM; with SK-MEL-5 melanoma, 16.5 µM; with TK-10 renal, 18.5 µM. Besides, the TGI with 786-0 renal was 45.7 µM; in the assay with CAKI-1 renal it was 9.05 µM; in the assay on COLO 205 colon it was greater than 100 µM; in the assay on NCI-H23 lung, 35 µM; in the assay on OVCAR-8 ovarian, 43.6 µM; in the assay on RXF 393 renal it was 37 µM. Further, the TGI was greater than 100 µM in the assay on SK-MEL-2 melanoma, 45.7 µM in the assay with SK-MEL-5 melanoma and 44.6 µM in the assay on TK-10 renal.

For `O=C(Nc1ccc(Cl)cc1Cl)C(=O)C(C(=O)c1ccc2ccccc2c1)C1OC(=O)c2ccccc21` (configuration not stated), the TGI in the assay on 786-0 renal came out at 19.5 µM; in the assay with CAKI-1 renal, 83 µM; in the assay on COLO 205 colon it was 57 µM; with NCI-H23 lung, 13.1 µM; in the assay on OVCAR-8 ovarian it was 34.6 µM; with RXF 393 renal it was 11.7 µM. For the same compound, the TGI in the assay with SK-MEL-2 melanoma came out at 31.7 µM; in the assay on SK-MEL-5 melanoma, 26.1 µM; in the assay with UACC-62 melanoma it was 46.7 µM.

Turning to `CC(=O)/C(=C/n1c(=S)[nH]c2ccccc21)C(=O)Nc1ccccc1C`, the TGI in the assay on 786-0 renal, in the assay on CAKI-1 renal, in the assay with COLO 205 colon, in the assay on NCI-H23 lung, in the assay on OVCAR-8 ovarian and in the assay with RXF 393 renal was greater than 100 µM throughout. In addition, the TGI with SK-MEL-2 melanoma, in the assay with SK-MEL-5 melanoma and in the assay with TK-10 renal was greater than 100 µM each time.

Consider `CO/C(=N\N=C\c1cccc(Cl)c1)c1ccncc1`, for which the TGI in the assay on 786-0 renal, with CAKI-1 renal, in the assay with COLO 205 colon, in the assay on NCI-H23 lung, in the assay with OVCAR-8 ovarian and in the assay with RXF 393 renal was greater than 10 µM each time. In addition, the TGI in the assay with SK-MEL-2 melanoma and in the assay on TK-10 renal was greater than 10 µM in each case.

As to `NC1CCCCC1.[O]=[Ge].[O]=[Ge].[O]=[Ge][OH].[O]=[Ge][OH]`, the GI50 in the assay with 786-0 renal, with CAKI-1 renal and with TK-10 renal was greater than 100 µM each time. Besides, the TGI in the assay on 786-0 renal, in the assay with CAKI-1 renal, with NCI-H23 lung, with OVCAR-8 ovarian, in the assay with RXF 393 renal and in the assay on SK-MEL-2 melanoma was greater than 100 µM throughout. The TGI in the assay with SK-MEL-5 melanoma, in the assay on TK-10 renal and with UACC-62 melanoma was greater than 100 µM in each case.

In the case of `C=CC1[C@H]2COC(C)(C)O[C@@H]2CC(=O)C1(C)C` (some centres not stated), the TGI in the assay with 786-0 renal, with CAKI-1 renal, in the assay on COLO 205 colon, in the assay on NCI-H23 lung, with OVCAR-8 ovarian and in the assay with RXF 393 renal was greater than 100 µM in each case. Further, the TGI with SK-MEL-2 melanoma and in the assay on TK-10 renal was greater than 100 µM in each case.

For `COC(=O)C(C(=O)C(=O)Nc1ccc(C(F)(F)F)cc1[N+](=O)[O-])c1csc(-n2nc(-c3ccccc3)cc2-c2ccccc2)n1` (configuration not stated), the TGI with 786-0 renal, in the assay with CAKI-1 renal, with COLO 205 colon, in the assay with NCI-H23 lung, in the assay on OVCAR-8 ovarian and in the assay on RXF 393 renal was greater than 100 µM in each case. In addition, the TGI in the assay on SK-MEL-2 melanoma, in the assay on TK-10 renal and in the assay with UACC-62 melanoma was greater than 100 µM each time.

Take `CCCCS(=O)CCC(N)C(=O)O` (configuration not stated): the TGI in the assay with 786-0 renal, in the assay with CAKI-1 renal, in the assay on COLO 205 colon, with NCI-H23 lung, with OVCAR-8 ovarian and in the assay with RXF 393 renal was greater than 100 µM each time. In addition, the TGI with SK-MEL-5 melanoma, in the assay on TK-10 renal and in the assay with UACC-62 melanoma was greater than 100 µM throughout.

Turning to `O=C(c1ccccc1)C1CCCCN1C(=O)c1ccccc1` (configuration not stated), the TGI in the assay with 786-0 renal, in the assay on CAKI-1 renal, with COLO 205 colon, with OVCAR-8 ovarian, in the assay with RXF 393 renal and with SK-MEL-2 melanoma was greater than 100 µM throughout. In addition, the TGI in the assay with SK-MEL-5 melanoma, in the assay on TK-10 renal and in the assay with UACC-62 melanoma was greater than 100 µM throughout.

Turning to `COc1ccc(C2SCC(=O)N2NC(=O)C(O)c2ccccc2)cc1OC` (configuration not stated), the GI50 with 786-0 renal, with CAKI-1 renal, in the assay on COLO 205 colon, with OVCAR-8 ovarian, in the assay on RXF 393 renal and in the assay on SK-MEL-2 melanoma was greater than 100 µM in each case. For the same compound, the GI50 with SK-MEL-5 melanoma, in the assay on TK-10 renal and in the assay with UACC-62 melanoma was greater than 100 µM each time. Also, the TGI with 786-0 renal, with CAKI-1 renal, with COLO 205 colon, with OVCAR-8 ovarian, in the assay with RXF 393 renal and in the assay on SK-MEL-2 melanoma was greater than 100 µM each time. For the same compound, the TGI with SK-MEL-5 melanoma, with TK-10 renal and in the assay on UACC-62 melanoma was greater than 100 µM in each case.
